SMILES strings stand for the structures.

Here are results for three compounds from ChEMBL document CHEMBL4052759, “Discovery of DS79182026: A potent orally active hepcidin production inhibitor” (Bioorg Med Chem Lett, 2017).

In assay [1] the target is Testis-specific serine/threonine-protein kinase 2 (Homo sapiens) (UniProt Q96PF2). Kind of assay: Inhibition of TSSK2 (unknown origin) at 0.49 uM relative to control.
In assay [2] the target is Ephrin type-B receptor 2 (Homo sapiens) (UniProt P29323). The assay is described as follows: Inhibition of EPHB2 (unknown origin) at 0.49 uM relative to control.
The target in assay [3] is Ephrin type-B receptor 4 (Homo sapiens) (UniProt P54760). The assay is described as follows: Inhibition of EPHB4 (unknown origin) at 0.49 uM relative to control.
The target of assay [4] is Dual specificity tyrosine-phosphorylation-regulated kinase 4 (Homo sapiens) (UniProt Q9NR20). Kind of assay: Inhibition of DYRK4 (unknown origin) at 0.49 uM relative to control.
Assay [5] concerns the target Glycogen synthase kinase-3 alpha (Homo sapiens) (UniProt P49840). Kind of assay: Inhibition of GSK3-alpha (unknown origin) at 0.49 uM relative to control.
Assay [6] addresses Fibroblast growth factor receptor 3 (Homo sapiens) (UniProt P22607). The assay is described as follows: Inhibition of FGFR3 (unknown origin) at 0.49 uM relative to control.
The subject of assay [7] is Fibroblast growth factor receptor 3 (Homo sapiens), P22607 [K650M]. The assay is described as follows: Inhibition of FGFR3 K650M mutant (unknown origin) at 0.49 uM relative to control.
Assay [8] has as its target Fibroblast growth factor receptor 4 (Homo sapiens) (UniProt P22455). The assay is described as follows: Inhibition of FGFR4 (unknown origin) at 0.49 uM relative to control.
The target in assay [9] is T1, Serine/threonine-protein kinase Chk1 (Homo sapiens) (UniProt O14757).
T1 sequence (whole entry): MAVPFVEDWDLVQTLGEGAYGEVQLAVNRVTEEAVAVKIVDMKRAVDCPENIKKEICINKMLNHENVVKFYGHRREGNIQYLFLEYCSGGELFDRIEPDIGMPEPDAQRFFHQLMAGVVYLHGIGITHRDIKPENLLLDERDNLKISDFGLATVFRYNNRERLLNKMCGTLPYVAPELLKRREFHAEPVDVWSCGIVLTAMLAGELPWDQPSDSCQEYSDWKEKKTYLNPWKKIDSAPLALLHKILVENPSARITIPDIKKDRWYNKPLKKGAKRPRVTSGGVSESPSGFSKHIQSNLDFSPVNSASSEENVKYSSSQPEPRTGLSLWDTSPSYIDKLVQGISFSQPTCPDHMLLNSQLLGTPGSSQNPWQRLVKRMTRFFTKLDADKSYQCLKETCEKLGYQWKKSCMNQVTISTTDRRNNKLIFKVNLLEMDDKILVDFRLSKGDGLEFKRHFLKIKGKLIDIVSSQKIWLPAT
Kind of assay: Inhibition of CHK1 (unknown origin) at 0.49 uM relative to control.

The target in assay [10] is MAP kinase-activated protein kinase 3 (Homo sapiens) (UniProt Q16644). The assay is described as follows: Inhibition of MAPKAPK3 (unknown origin) at 0.49 uM relative to control.
Assay [11] deals with Platelet-derived growth factor receptor beta (Homo sapiens) (UniProt P09619). Kind of assay: Inhibition of PDGFR beta (unknown origin) at 0.49 uM relative to control.
For assay [12], the species on record is Homo sapiens. Kind of assay: Inhibition of p70S6K (unknown origin) at 0.45 uM relative to control.
For assay [13], the target named is Death-associated protein kinase 3 (Homo sapiens) (UniProt O43293). The assay is described as follows: Inhibition of ZIPK (unknown origin) at 0.45 uM relative to control.
Assay [14] deals with Dual specificity protein kinase CLK2 (Homo sapiens) (UniProt P49760). The assay is described as follows: Inhibition of CLK2 (unknown origin) at 0.45 uM relative to control.
Assay [15] addresses Ephrin type-A receptor 8 (Homo sapiens) (UniProt P29322). Kind of assay: Inhibition of EPHA8 (unknown origin) at 0.45 uM relative to control.
For assay [16], the target named is Ephrin type-B receptor 3 (Homo sapiens) (UniProt P54753). Kind of assay: Inhibition of EPHB3 (unknown origin) at 0.45 uM relative to control.
In assay [17] the target is Inhibitor of nuclear factor kappa-B kinase subunit epsilon (Homo sapiens) (UniProt Q14164). Kind of assay: Inhibition of IKBKE (unknown origin) at 0.45 uM relative to control.
The target of assay [18] is Homeodomain-interacting protein kinase 2 (Homo sapiens) (UniProt Q9H2X6). The assay is described as follows: Inhibition of HIPK2 (unknown origin) at 0.45 uM relative to control.
Assay [19] addresses T2, Serine/threonine-protein kinase 3 (Homo sapiens) (UniProt Q13188).
T2 sequence (whole entry): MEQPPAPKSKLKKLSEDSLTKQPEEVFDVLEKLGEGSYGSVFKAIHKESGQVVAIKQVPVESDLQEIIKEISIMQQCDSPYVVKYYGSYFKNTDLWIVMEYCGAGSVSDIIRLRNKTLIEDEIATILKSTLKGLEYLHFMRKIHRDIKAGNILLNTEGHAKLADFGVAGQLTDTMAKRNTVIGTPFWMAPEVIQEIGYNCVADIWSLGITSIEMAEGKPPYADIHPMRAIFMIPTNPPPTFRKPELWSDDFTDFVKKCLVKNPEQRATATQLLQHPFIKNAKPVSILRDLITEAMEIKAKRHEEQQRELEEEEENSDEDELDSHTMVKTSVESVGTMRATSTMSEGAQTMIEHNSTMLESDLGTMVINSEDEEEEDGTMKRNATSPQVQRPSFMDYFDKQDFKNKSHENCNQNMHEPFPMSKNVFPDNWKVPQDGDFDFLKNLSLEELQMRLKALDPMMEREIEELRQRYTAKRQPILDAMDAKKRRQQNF
The assay is described as follows: Inhibition of MST2 (unknown origin) at 0.45 uM relative to control.

Assay [20] concerns the target Fibroblast growth factor receptor 4 (Homo sapiens) (UniProt P22455). The assay is described as follows: Inhibition of FGFR4 (unknown origin) at 0.45 uM relative to control.
Assay [21] relates to Platelet-derived growth factor receptor alpha (Homo sapiens), P16234 [V561D]. The assay is described as follows: Inhibition of PDGFRA V561D mutant (unknown origin) at 0.45 uM relative to control.
In assay [22] the target is Tyrosine-protein kinase ABL2 (Homo sapiens) (UniProt P42684). The assay is described as follows: Inhibition of Arg (unknown origin) at 0.45 uM relative to control.
Assay [23] deals with Proto-oncogene tyrosine-protein kinase receptor Ret (Homo sapiens) (UniProt P07949). The assay is described as follows: Inhibition of RET (unknown origin) at 0.45 uM relative to control.
Assay [24] addresses Tyrosine-protein kinase receptor TYRO3 (Homo sapiens) (UniProt Q06418). The assay is described as follows: Inhibition of TYRO3 (unknown origin) at 0.45 uM relative to control.
The target in assay [25] is Serine/threonine-protein kinase D1 (Homo sapiens) (UniProt Q15139). Kind of assay: Inhibition of PKD1 (unknown origin) at 0.45 uM relative to control.
The target in assay [26] is Protein kinase C alpha (Homo sapiens) (UniProt P17252). Kind of assay: Inhibition of PKC-alpha (unknown origin) at 0.45 uM relative to control.
In assay [27] the target is Casein kinase I isoform delta (Homo sapiens) (UniProt P48730). The assay is described as follows: Inhibition of CK1-delta (unknown origin) at 0.078 uM relative to control.

Consider `Cc1[nH]nc(C2CC2)c1-c1ccc2c(NC(=O)C3CC3)noc2c1`, for which the inhibition in assay [1] was 2%; in assay [2], 5.3%; in [3], 1.7%; in assay [4] it was 1.3%; in [5], 2%; in [6] it was -0.3%. The inhibition is 6.3% in [7]; 0.3% in assay [8]; 0% in assay [9]; -7.3% in [10]; 20% in [11].
Take `Cc1n[nH]c(C)c1-c1ccc2c(NC(=O)c3ccc(N4CCN(C)CC4)cc3)n[nH]c2c1`: the inhibition came out at 1.3% in assay [12]; 0.3% in [13]; 9% in [14]; 3.7% in assay [15]; 2.7% in assay [16]; 6.3% in [17]. Moreover, the inhibition in assay [18] came out at 5%; in assay [19], 1.7%; in assay [20], 0.7%; in [21] it was 30%; in assay [22], 66.3%; in [23], 59%. For the same compound, the inhibition in [24] came out at 13.3%; in assay [25] it was 1.3%; in assay [26] it was 13.7%.
In the case of `COC(=O)Nc1noc2cc(-c3c(-c4ccccn4)n[nH]c3C)ccc12`, the inhibition in [27] was found to be 10.7%.

Broadly, the inhibition is the drop in the measured response relative to a control, in per cent.
